Assay results from BindingDB's records for doi:10.1021/acsmedchemlett.6b00299 (University of Michigan, 2016).

Assay: Inhibition of human serum factor D-mediated complement activation in rabbit erythrocytes assessed as reduction in rabbit erythrocyte hemolysis preincubated with human serum for 15 mins followed by addition of rabbit erythrocytes and Mg-EGTA measured after 30 mins

Row | Compound | IC50 [nM]
1 | NC(=O)c1nn(CC(=O)N2CCS[C@H]2C(=O)Nc2cccc(Br)n2)c2ncccc12 | 205
2 | NC(=O)c1nn(CC(=O)N2[C@@H]3C[C@@H]3C[C@H]2C(=O)Nc2cccc(Br)n2)c2ncccc12 | 47
